Consider 2 compounds from patent US20160340327A1, “PROCESS FOR PREPARING AMORPHOUS CABAZITAXEL” (SHILPA MEDICARE LIMITED, priority 2012, published 2016).

The nature of data set [1]: Storage stability of the solid form. The data set is classed as physicochemical. The conditions noted are these: storage for longer time; no conditions or data printed.
For data set [2] the following is noted: description from the drug label; cited from earlier work.

As for `CO[C@H]1C(=O)[C@@]2(C)C([C@H](OC(=O)c3ccccc3)[C@]3(O)C[C@H](OC(=O)[C@H](O)[C@H](NC(=O)OC(C)(C)C)c4ccccc4)C(C)=C1C3(C)C)[C@]1(OC(C)=O)CO[C@@H]1C[C@@H]2OC` (some centres unmarked), in data set [1], the “stability on handling and storage (morphology and physicochemical characteristics)” value was “quite stable”.

Turning to `CO[C@H]1C(=O)[C@]2(C)[C@@H](OC)C[C@H]3OC[C@@]3(OC(C)=O)[C@H]2[C@H](OC(=O)c2ccccc2)[C@]2(O)C[C@H](OC(=O)[C@H](O)[C@@H](NC(=O)OC(C)(C)C)c3ccccc3)C(C)=C1C2(C)C` [Cabazitaxel, (2α,5β,7β,10β,13α)-4-acetoxy-13-({(2R,3S)-3[(tert-butoxycarbonyl)amino]-2-hydroxy-3-phenylpropanoyl}oxy)-1-hydroxy-7,10-dimethoxy-9-oxo-5,20-epoxytax-11-en-2-yl benzoate], the solubility in water result in data set [2] is recorded as “practically insoluble in water”.
